This note sets out measurements from PMC10614160 (Journal of medicinal chemistry, 2023).

The test system of the data set is OVSAHO cells. The experiment in a line: cell viability of OVSAHO cells. Type of data set: cell-based. The note with it: for effect of combining the drug with 1 on inhibiting OVSAHO cells: compared with 1 alone; for 24 h cytotoxicity against OVSAHO: drug alone.

Take `COC(=O)[C@@]1(O)C[C@H]2O[C@]1(C)n1c3ccccc3c3c4c(c5c6ccccc6n2c5c31)C(=O)NC4` [K252A]: the “effect of combining the drug with 1 on inhibiting OVSAHO cells” value (from here on “effect … on inhibiting OVSAHO cells”) (combined with 1 (20 μM), 24 h) is on record as “slightly enhances”.

In the case of `CC(=O)O[C@H]1C(=O)[C@@]2(C)[C@H]([C@H](OC(=O)c3ccccc3)[C@]3(O)C[C@H](OC(=O)[C@H](O)[C@@H](NC(=O)c4ccccc4)c4ccccc4)C(C)=C1C3(C)C)[C@]1(OC(C)=O)CO[C@@H]1C[C@@H]2O` [paclitaxel], under “combined with 1 (20 μM), 24 h”, the “effect … on inhibiting OVSAHO cells” value is “No inhibition enhancement”.

Consider `COc1cccc2c1C(=O)c1c(O)c3c(c(O)c1C2=O)C[C@@](O)(C(=O)CO)C[C@@H]3O[C@H]1C[C@H](N)[C@H](O)[C@H](C)O1` [doxorubicin], for which the “cell viability of OVSAHO treated with 1 combined with the drug” value (combined with 1 (20 μM), 24 h) is on record as about 20%. Besides, the “24 h cytotoxicity against OVSAHO” value reads like this: (1.25 μM) “around 75%”; (2.5 μM) “around 75%”; (5 μM) “around 75%”.

In the case of `Cn1ncnc1[C@H]1c2n[nH]c(=O)c3cc(F)cc(c23)N[C@@H]1c1ccc(F)cc1` [talazoparib], the “effect … on inhibiting OVSAHO cells” value (combined with 1 (20 μM), 24 h) is “No inhibition enhancement”.

On to `O=C(C1CC1)N1CCN(Cn2sc3ccccc3c2=O)CC1` [LOC14], for which the “effect … on inhibiting OVSAHO cells” value (combined with 1 (20 μM), 24 h) was “No inhibition enhancement”.

For `N.N.[Cl][Pt][Cl]` [cisplatin], under “combined with 1 (20 μM), 24 h”, the “effect … on inhibiting OVSAHO cells” value was “slightly enhances”.

Regarding `CC(C)(C)c1ccc(S(=O)(=O)/C=C/C#N)cc1` [BAY11–7085], the “effect … on inhibiting OVSAHO cells” value (combined with 1 (20 μM), 24 h) is given as “slightly enhances”.

Consider PACMA31, for which the “effect … on inhibiting OVSAHO cells” value (combined with 1 (20 μM), 24 h) is given as “No inhibition enhancement”.

With `CC(C)C[C@H](NC(=O)[C@H](Cc1ccccc1)NC(=O)c1cnccn1)B(O)O` [BTZ, bortezomib], the “effect … on inhibiting OVSAHO cells” value (combined with 1 (20 μM), 24 h) is listed as “No inhibition enhancement”.
